We go through three sequences from patent US10105425B2, “Isolated donor MHC-derived peptide and uses thereof” (INSERM (INSTITUT NATIONAL DE LA SANTÉ ET DE LA RECHERCHE …, priority 2014, dated 2018).

One assay concerns CD8^+CD40Ig Tregs. The experiment in a line: MLR coculture: CD25 activation of CD8+CD40Ig Tregs with syngeneic pDCs and allogeneic peptides. It counts as cell-based, rat. The conditions noted are these: for upregulation of CD25 expression, fold vs. no peptide: 6 days culture, matured syngeneic pDCs, 120 μg/ml peptide. As to the method:
(§1) For MLR coculture assays, pDCs from LEW.1A naive rats (1.25×10^4 cells), syngeneic CD8^+CD40Ig Tregs (5×10^4 cells) and 120 μg/ml of allogeneic peptides were plated in triplicate in 200 μl of complete RPMI-1640 medium in round-bottom 96 wells plates for 6 days at 37° C., 5% CO2. pDCs were matured with 0.5 μM of CpG ODN 1826.
(§2) Proliferation of CFSE-labeled naive CD4^+CD25^− T cells and phenotype of CD8^+CD45RC^low Tregs were analyzed by flow cytometry on a FACSCanto II cytometer (BD Biosciences, Mountain View, Calif.) after gating on TCR^+CD4^+ cells or TCR^+CD8^+ cells among live cells (DAPI negative).
For extracellular staining, cells were stained with the following mAbs: anti-TCRαβ (R73, Alexa Fluor 647-conjugated), anti-CD8α (OX8, PE-Cy7-conjugated, ebiosciences), anti-CD4 (W3.25, PE-Cy7-conjugated), anti-CD45RC (OX22, FITC-conjugated), anti-CD28 (JJ319, biotin-labeled), anti-CD71 (OX26, biotin-labeled), anti-mouse Vb11 (KT11, biotin-labeled, AbD Serotec) anti-CD25 (OX39, biotin-labeled) and anti-MHC-II (OX6, biotin-labeled).
(§3) All biotinylated mAbs were visualized using Streptavidin-PerCP.Cy5.5 (BD Biosciences). A FACSCanto II cytofluorimeter (BD Biosciences, Mountain View, Calif.) was used to measure fluorescence, and data were analyzed using FlowJo software (Tree Star, Inc. USA, version 7.6.5). Cells were first gated by their morphology and dead cells excluded by selecting DAPI negative viable cells.

Assay [1] has as its system heart allograft in LEW.1A recipients. As to the kind of experiment: Cardiac allotransplantation with in vivo peptide treatment. Details: species or system rat. The settings on record: for allograft survival: five i.v injections of 500 μg peptide, LEW.1W into LEW.1A, n=4. As to the method:
Allotransplantations of heart were performed between whole MHC incompatible LEW.1W (RT1.A^u as donors) and LEW.1A (RT1.A^a as recipients) male rats as previously described (5). The experiments were approved by the regional ethical committee for animal experimentation.
16-mer peptides were dissolved in 0.4% DMSO/PBS before injection. For the first protocol, single doses of peptide (500 μg/injection) were injected i.v at different time points before and after transplantation at day −6, −3, 0 +3 and +7 into grafted LEW.1A recipients. In the second protocol, mini osmotic pumps (ALZET, Cupertino, Calif., USA) were implanted intraperitoneally (i.p) in recipients and delivered continuously either 20.83 or 41.66 μg/hour of 16-mer peptides for 14 days. A first pump was implanted on day −7 before transplantation and was replaced by a second one at day +7, allowing delivery of 14 or 28 mg of peptide per animal for 28 consecutive days. A depleting anti-CD8α mAb (OX8, IgG1, 3 mg/kg) or an anti-MHC class Ia and Ib mAb (OX18, 3 mg/kg) were injected i.p. twice a week from day −7 until rejection. Allografts were monitored daily by palpation and allograft rejection was defined as complete cessation of palpable heart beat.

The test system of a further assay is cardiac grafts. The experiment in a line: Morphometric analysis of cardiac grafts (chronic rejection). The format is in vivo, rat. The settings on record: long-term surviving Du51-treated recipients. As to the method: The upper third of the graft was fixed in paraformaldehyde and embedded in paraffin. Five μm coronal sections were stained with hematoxylin-eosine-safron. Tissues were analyzed by a pathologist (K.R.) blinded to the groups and chronic rejection was evaluated as previously described (63).

For assay [2], the system named is CD8^+CD40Ig Tregs and pDCs. The experiment in a line: Cytokine ELISA in coculture supernatants after peptide stimulation. The format is cell-based, rat. The settings on record: 6 days peptide stimulation with pDCs, supernatant. As to the method: as §1
IFNγ, IL-10 were measured in coculture supernatants using ELISA from BD Biosciences OptEIA, IL-12 and TGFβ using ELISA from Invitrogen and R&D System respectively.

Assay [3] concerns heart allograft in irradiated LEW.1A recipients. As to the kind of experiment: Adoptive transfer of splenocytes from Du51-treated long-surviving recipients.
Source text: Total splenocytes (1.5·10^8 cells) were adoptively transferred i.v. the day before heart transplantation into naive LEW-1A recipients that had received 4.5 Gy of whole-body irradiation the same day. Recipients received splenocytes from Du51-treated rats (defined as 1st spl-transferred) or from naive rats (naive spl-transferred) or no cells (untreated irradiated).
In assay [4] the test system is CD4^+ and CD8^+ T cells isolated from rejected untreated animals. The settings on record: unmodified LEW.1A recipients, LEW.1W into LEW.1A; cited from earlier work.
The test system of the next assay is CD8^+CD45RC^low Tregs. The experiment in a line: Spleen cell populations by flow cytometry after peptide treatment. It counts as in vivo, rat. The settings on record: long-term surviving Du51-treated recipients. How it is done: as §3
Tetramerization of RT1.A^a/Du51 was performed at room temperature by addition of streptavidin-PE (Jackson ImmunoResearch) or streptavidin-APC (BD Biosciences) at a 4:1-molar ratio, in four equal aliquots added at 15-min intervals. Likewise, the control tetramer RT1.A^a/MTF-E (ILFPSSERLISNR) was conjugated to streptavidin-BV421 (Biolegend) and represented 1.6+/−0.7% of non-specific staining among Du51-specific cells. These three reagents were mixed and added to plated cells at 10 μg/mL for 1 hour at 4° C. Cells were further stained for CD8 and CD45RC and fluorescence was analyzed on a FACSCanto II cytometer (BD Biosciences, Mountain View, Calif.). Cells were first gated by their morphology and dead cells excluded by selecting DAPI negative cells.
For orientation: Flow cytometry measures light scatter and fluorescence of single cells or particles in a stream.

The next assay deals with CD4^+CD25^− T cells. The experiment in a line: Direct MLR suppressive assay (CFSE proliferation). It counts as cell-based, rat. How it is done: For direct MLR suppressive assays, sorted CFSE-labeled CD4^+CD25^− T cells from LEW.1A origin (5×10^4 cells) and allogeneic pDCs isolated from donor LEW.1W animals (1.25×10^4 cells) were plated in triplicate for 6 days in a final volume of 200 μl of completed RPMI-1640 medium in round-bottom 96 wells plates with FACS-sorted freshly purified naive CD8^+CD45RC^low Treg cells, peptide-expanded CD8^+CD40Ig Treg cells (5×10^4 cells), Du51 tetramer^+ or ^− CD8^+CD40Ig Tregs. For indirect MLR suppressive assay, splenocytes isolated from donor LEW.1W animals were frozen-thawed to induce apoptosis. Apoptotic cells were then cultured overnight with pDCs isolated from recipient LEW.1A animals (8:1 ratio) at 0.65×10^6 pDCs/mL. Alloantigens-loaded pDCs were finally washed and plated as described before for the direct MLR.
as §2

Assay [5] deals with donor-specific alloantibodies. As to the kind of experiment: Donor specific alloantibody detection by cytofluorimetry. The settings on record: long-term surviving Du51-treated recipients vs untreated or early rejecting. The format is in vivo, rat. How it is done: Alloantibodies were analyzed by cytofluorimetry as described elsewhere (28). Briefly, after digestion by collagenase D and red blood cell lysis, allogeneic spleen cells were incubated with diluted (1/8) heat-inactivated serum, and then with FITC-conjugated goat anti-rat IgG antibodies (H+L chain specific) (Jackson Laboratories), a mouse anti-rat IgG1 MAb (MCA 194, Serotec), IgG2a (MCA 278, Serotec) or IgG2b (MCA 195, Serotec). […] Cells were analyzed using a FACS Canto II cytofluorimeter (BD Biosciences, Mountain View, Calif.) and the results were expressed as mean channel fluorescence for each serum.

[6] abbreviates: after 6 days of peptide stimulation.

For “YLRYDSDVGEYRAVTE [Bu31, sub-dominant peptide from donor MHC class II RT1.B^u]”, the “upregulation of CD25 expression, fold vs. no peptide” value (from here on “upregulation … fold vs. no peptide”) with CD8^+CD40Ig Tregs is recorded as 1.67±0.09 fold. In assay [1], this sequence displayed an allograft survival of 11 days.

In the case of “REEYARFDSDVGEYR (Synthetic 15-mer peptide 51-18)”, the “upregulation … fold vs. no peptide” value with CD8^+CD40Ig Tregs came to 2.04±0.3 fold. Besides, the “activation / recognition by CD8+CD40Ig Tregs (CD25), in words” value with CD8^+CD40Ig Tregs (coculture with matured syngeneic pDCs, 6 days) is reported as “not significantly different from that induced by Du51”.

On to “NREEYARFDSDVGEYR (Synthetic Dominant peptide Du51)”, for which the “signs of chronic rejection in graft” value in the assay on cardiac grafts is on record as “no signs of chronic rejection”. For the same sequence, in [2], the IFNγ expression entry is reported as “significant increased expression”, the IL-10 expression entry is on record as “no modification”, the IL-12 production result is “decreased” and the TGFβ expression result is reported as “no modification”. In assay [3] (150·10^6 splenocytes from recipients treated with 1 mg/day Du51, irradiated secondary recipients), the “recipients with significant prolongation of allograft survival” value is 50%. For the same sequence, the “anatomopathological status of graft” value in assay [3] (first adoptively transferred long term recipients) is “complete absence of vascular lesions and obstructions”. Further, in [3] (first adoptively transferred long-term recipients vs untreated), the “total IgG, IgG1 and IgG2b alloantibodies production” value is recorded as “total inhibition”. Also, the “involvement in acute rejection of grafts” value in [4] is recorded as “not involved in acute rejection”. Besides, in the assay with CD8^+CD45RC^low Tregs, the “percentage and absolute number of total CD8+ T cells, in particular CD8+CD45RClow Tregs in spleen” value is recorded as “trend for an increase”; the “tetramer-positive Du51-specific Tregs in spleen” value is on record as “trend for an increase”. Further, the “ex vivo suppressive activity of peptide-induced CD8+CD45RClow Tregs” value in the assay on CD4^+CD25^− T cells (Tregs from Du51-treated recipients) is “efficiently inhibit effector CD4^+ T cell proliferation”. Also, the “proliferation of effector T cells with peptide-stimulated Tregs” value in the assay with CD4^+CD25^− T cells (Tregs stimulated 6 days with peptide, compared to non-activating peptide) was “significant inhibition”. Further, the “total IgG, IgG1, IgG2a and IgG2b alloantibodies production” value in [5] is on record as “total inhibition”. Besides, the “upregulation … fold vs. no peptide” value with CD8^+CD40Ig Tregs is given as 2.07±0.18 fold. Further, in the assay with CD8^+CD40Ig Tregs (setting [6]), the CD28 expression result is “upregulation”, the CD71 expression result was “upregulation”, the Foxp3 expression result is given as “no modification” and the “MHC class II expression” value is recorded as “upregulation”. This sequence also gave an allograft survival in [1] of 9.5 days. In assay [1] (i.p. mini-osmotic pumps 20.8 μg peptide per hour for 28 days from day -7), this sequence returned an indefinite allograft survival of 25%. Further, the “indefinite allograft survival, recipients” value in assay [1] (osmotic pump 41.6 μg peptide per hour, LEW.1W donor hearts) stood at 80%. Besides, the “rejection of Brown Norway (BN) third party grafts, day after transplantation” value in assay [1] (osmotic pump 41.6 μg per hour, BN/LEW.1A) came to 7 days.
